pEC50: −log10 of the molar value.
biological target: T1, human GPR119 (Homo sapiens, UniProt Q8TDV5); assay: AlphaScreen cAMP assay in MIN6 cells stably transfected with human GPR119; type: cell-based; details: Min-6/hGPR119 cells, 45 min at room temperature
T1 construct: expression vector for human GPR119 cDNA (Acc. No. NP_848566); expressed in transfected cells; Min-6/hGPR119
T1 sequence (Q8TDV5 1-335): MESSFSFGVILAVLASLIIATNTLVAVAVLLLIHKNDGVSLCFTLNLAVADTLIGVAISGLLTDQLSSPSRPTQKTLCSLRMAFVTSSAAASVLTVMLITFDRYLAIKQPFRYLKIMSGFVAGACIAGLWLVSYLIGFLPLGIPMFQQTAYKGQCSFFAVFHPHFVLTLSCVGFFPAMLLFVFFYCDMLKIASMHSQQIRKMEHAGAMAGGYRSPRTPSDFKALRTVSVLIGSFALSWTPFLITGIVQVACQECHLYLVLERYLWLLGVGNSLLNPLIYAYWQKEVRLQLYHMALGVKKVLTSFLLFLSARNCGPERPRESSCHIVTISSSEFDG
Procedure: The compounds of formula I according to the invention modulate the activity of the G-protein-coupled receptor GPR119. The effect of the compounds on the activation of GPR119 and on the stimulation of intracellular cAMP concentration is determined using the AlphaScreen cAMP Assay Kit (Cat. No. #6760625R) made by PerkinElmer.
MIN6 cells [Miyazaki J et al. Endocrinology. 1990 July; 127(1):126-32] are stably transfected with an expression vector for human GPR119 cDNA (Acc. No. NP_848566). Min-6/hGPR119 cells are cultured in DMEM, 10% FBS, 50 μM β-mercaptoethanol, 0.3 mg/mL Geniticin, 2 mM GlutaMAX at 37° C. 5% CO2. For the assay, the cells are seeded in Optiplates (white, 384-well, 160 W—barcoded, TC, sterile with lid, Cat. No. #6007688 (Perkin Elmer); 10000 cells/well; 50 μl). The plates covered with lids are then incubated for 24 hours at 37° C./5% CO2. After the medium is aspirated from the wells completely, 10 μl of the test compound are added, the compounds are diluted using stimulating buffer (140 mM NaCl, 3.6 mM KCl, 0.5 mM NaH2PO4, 0.5 mM MgSO4, 1.5 mM CaCl2, 10 mM Hepes, 5 mM NaHCO3; pH 7.4. 0.5 mM IBMX and 0.1% BSA, the final DMSO concentration is 1%). After 45 minutes incubation at room temperature (approx. 20° C.), the cAMP concentrations are determined using the AlphaScreen cAMP Assay Kit (Cat. No. #6760625R from PerkinElmer).

With `CC(C)(C)OC(=O)N1CCC(N(C(=O)c2coc(-c3ccc(C#N)cc3F)n2)C2CC2)CC1` [Example 23, 4-{[2-(4-Cyano-2-fluoro-phenyl)-oxazole-4-carbonyl]-cyclopropyl-amino}-piperidine-1-carboxylic acid tert-butyl ester] as the compound, how does the pEC50 read?
The pEC50 was 7.74.

With `CC(C)(C)OC(=O)N1CCC(N(C(=O)c2coc(-c3ccc(C#N)c(F)c3)n2)C2CC2)CC1` [Example 24, 4-{[2-(4-Cyano-3-fluoro-phenyl)-oxazole-4-carbonyl]-cyclopropyl-amino}-piperidine-1-carboxylic acid tert-butyl ester] as the compound, how does the pEC50 read?
Its pEC50 is 7.38.

With `CC(C)(C)OC(=O)N1CCC(N(C(=O)c2coc(-c3ccc(S(C)(=O)=O)cc3F)n2)C2CC2)CC1` [Example 25] as the compound, how does the pEC50 read?
The pEC50 was 7.01.

`CCNC(=O)c1ccc(-c2nc(C(=O)N(C3CC3)C3CCN(C(=O)OC(C)(C)C)CC3)co2)cc1` [Example 26, 4-{Cyclopropyl-[2-(4-ethylcarbamoyl-phenyl)-oxazole-4-carbonyl]-amino}-piperidine-1-carboxylic acid tert-butyl ester] was tested. Which pEC50 did it give?
The pEC50 was 6.44.

With `CC(C)(C)OC(=O)N1CCC(N(C(=O)c2coc(-c3cnco3)n2)C2CC2)CC1` [Example 27, 4-[([2,5′]Bioxazolyl-4-carbonyl)-cyclopropyl-amino]-piperidine-1-carboxylic acid tert-butyl ester] as the compound, how does the pEC50 read?
The pEC50 was 5.75.

How did the pEC50 turn out when `CC(C)(C)OC(=O)N1CCC(N(C(=O)c2coc(-c3ccc(S(C)(=O)=O)c(F)c3)n2)C2CC2)CC1` [Example 28, 4-{Cyclopropyl-[2-(3-fluoro-4-methanesulfonyl-phenyl)-oxazole-4-carbonyl]-amino}-piperidine-1-carboxylic acid tert-butyl ester] was run?
Its pEC50 is 6.80.

`CC(C)(C)OC(=O)N1CCC(N(C(=O)c2coc(-c3ccc(C#N)cc3)n2)C2CC2)CC1` [Example 29, 4-{[2-(4-Cyano-phenyl)-oxazole-4-carbonyl]-cyclopropyl-amino}-piperidine-1-carboxylic acid tert-butyl ester] was tested. Which pEC50 did it give?
The pEC50 was 6.93.

How did the pEC50 turn out when `CC(C)(C)OC(=O)N1CCC(N(C(=O)c2cnc(-c3ccc(S(C)(=O)=O)cc3F)o2)C2CC2)CC1` [Example 30, 4-{Cyclopropyl-[2-(2-fluoro-4-methanesulfonyl-phenyl)-oxazole-5-carbonyl]-amino}-piperidine-1-carboxylic acid tert-butyl ester] was run?
Its pEC50 is 6.75.

How did the pEC50 turn out when `CC(C)(C)OC(=O)N1CCC(N(C(=O)c2cnc(-c3ccc(C#N)cc3F)o2)C2CC2)CC1` [Example 31, 4-{[2-(4-Cyano-2-fluoro-phenyl)-oxazole-5-carbonyl]-cyclopropyl-amino}-piperidine-1-carboxylic acid tert-butyl ester] was run?
Its pEC50 is 7.32.

With `CC(C)(C)OC(=O)N1CCC(N(C(=O)c2cnc(-c3ccc(C#N)c(F)c3)o2)C2CC2)CC1` [Example 32, 4-{[2-(4-Cyano-3-fluoro-phenyl)-oxazole-5-carbonyl]-cyclopropyl-amino}-piperidine-1-carboxylic acid tert-butyl ester] as the compound, how does the pEC50 read?
The pEC50 was 7.46.

How did the pEC50 turn out when `CC(C)(C)OC(=O)N1CCC(N(C(=O)c2cnc(-c3cnco3)o2)C2CC2)CC1` [Example 33, 4-[([2,5′]Bioxazolyl-5-carbonyl)-cyclopropyl-amino]-piperidine-1-carboxylic acid tert-butyl ester] was run?
Its pEC50 is 6.19.

With `CC(C)(C)OC(=O)N1CCC(N(C(=O)c2cnc(-c3ccc(S(C)(=O)=O)c(F)c3)o2)C2CC2)CC1` [Example 34, 4-{Cyclopropyl-[2-(3-fluoro-4-methanesulfonyl-phenyl)-oxazole-5-carbonyl]-amino}-piperidine-1-carboxylic acid tert-butyl ester] as the compound, how does the pEC50 read?
The pEC50 was 7.07.

With `CC(C)(C)OC(=O)N1CCC(N(C(=O)c2cnc(-c3ccc(C#N)cc3)o2)C2CC2)CC1` [Example 35, 4-{[2-(4-Cyano-phenyl)-oxazole-5-carbonyl]-cyclopropyl-amino}-piperidine-1-carboxylic acid tert-butyl ester] as the compound, how does the pEC50 read?
The pEC50 was 6.87.

How did the pEC50 turn out when `CC(C)(C)OC(=O)N1CCC(N(C(=O)c2ncc(-c3ccc(S(C)(=O)=O)cc3)o2)C2CC2)CC1` [Example 36, 4-{Cyclopropyl-[5-(4-methanesulfonyl-phenyl)-oxazole-2-carbonyl]-amino}-piperidine-1-carboxylic acid tert-butyl ester] was run?
Its pEC50 is 6.45.

`CC(C)(C)OC(=O)N1CCC(N(C(=O)c2ncc(-c3ccc(C#N)cc3)o2)C2CC2)CC1` [Example 37, 4-{[5-(4-Cyano-phenyl)-oxazole-2-carbonyl]-cyclopropyl-amino}-piperidine-1-carboxylic acid tert-butyl ester] was tested. Which pEC50 did it give?
Its pEC50 is 6.85.

How did the pEC50 turn out when `CC(C)(C)OC(=O)N1CCC(N(C(=O)c2cc(-c3ccc(C#N)cc3)on2)C2CC2)CC1` [Example 38, 4-{-[5-(4-Cyano-phenyl)-isoxazole-3-carbonyl]-cyclopropyl-amino}-piperidine-1-carboxylic acid tert-butyl ester] was run?
The pEC50 was 8.05.

With `CC(C)(C)OC(=O)N1CCC(N(C(=O)c2cc(-c3ccc(C#N)cc3F)on2)C2CC2)CC1` [Example 39, 4-{[5-(4-Cyano-2-fluoro-phenyl)-isoxazole-3-carbonyl]-cyclopropyl-amino}-piperidine-1-carboxylic acid tert-butyl ester] as the compound, how does the pEC50 read?
Its pEC50 is 8.52.

With `CC(C)(C)OC(=O)N1CCC(N(C(=O)c2cc(-c3ccc(C#N)c(F)c3)on2)C2CC2)CC1` [Example 40, 4-{[5-(4-Cyano-3-fluoro-phenyl)-isoxazole-3-carbonyl]-cyclopropyl-amino}-piperidine-1-carboxylic acid tert-butyl ester] as the compound, how does the pEC50 read?
The pEC50 was 8.15.

With `CC(C)(C)OC(=O)N1CCC(N(C(=O)c2cc(-c3ccc(C#N)cc3)no2)C2CC2)CC1` [Example 41, 4-{[3-(4-Cyano-phenyl)-isoxazole-5-carbonyl]-cyclopropyl-amino}-piperidine-1-carboxylic acid tert-butyl ester] as the compound, how does the pEC50 read?
Its pEC50 is 7.96.

`CC(C)(C)OC(=O)N1CCC(N(C(=O)c2cc(-c3ccc(C#N)cc3F)no2)C2CC2)CC1` [Example 42, 4-{[3-(4-Cyano-2-fluoro-phenyl)-isoxazole-5-carbonyl]-cyclopropyl-amino}-piperidine-1-carboxylic acid tert-butyl ester] was tested. Which pEC50 did it give?
The pEC50 was 8.70.

How did the pEC50 turn out when `CC(C)(C)OC(=O)N1CCC(N(C(=O)c2cc(-c3ccc(C#N)c(F)c3)no2)C2CC2)CC1` [Example 43, 4-{[3-(4-Cyano-3-fluoro-phenyl)-isoxazole-5-carbonyl]-cyclopropyl-amino}-piperidine-1-carboxylic acid tert-butyl ester] was run?
The pEC50 was 7.85.

How did the pEC50 turn out when `Cc1c(C(=O)N(C2CC2)C2CCN(C(=O)OC(C)(C)C)CC2)noc1-c1ccc(C#N)cc1` [Example 44, 4-{[5-(4-Cyano-phenyl)-4-methyl-isoxazole-3-carbonyl]-cyclopropyl-amino}-piperidine-1-carboxylic acid tert-butyl ester] was run?
Its pEC50 is 7.33.

With `Cc1c(C(=O)N(C2CC2)C2CCN(C(=O)OC(C)(C)C)CC2)noc1-c1ccc(C#N)c(F)c1` [Example 45, 4-{[5-(4-Cyano-3-fluoro-phenyl)-4-methyl-isoxazole-3-carbonyl]-cyclopropyl-amino}-piperidine-1-carboxylic acid tert-butyl ester] as the compound, how does the pEC50 read?
Its pEC50 is 7.60.

`Cc1c(C(=O)N(C2CC2)C2CCN(C(=O)OC(C)(C)C)CC2)noc1-c1ccc(C#N)cc1F` [Example 46, 4-{[5-(4-Cyano-2-fluoro-phenyl)-4-methyl-isoxazole-3-carbonyl]-cyclopropyl-amino}-piperidine-1-carboxylic acid tert-butyl ester] was tested. Which pEC50 did it give?
Its pEC50 is 8.52.
